In patent EP0837881B1, “CONJUGATES OF alpha-MSH WITH A FATTY ACID, PREPARATION METHOD THEREFOR, AND USE THEREOF AS A DRUG” (INSTITUT EUROPEEN DE BIOLOGIE CELLULAIRE, priority 1995, dated 2004):
“And” between values parts separate entries of the source, which are not always exact repeats. Equal values may be shown once. Numbered stars: 1 amine (or outer) side, 2 acyl side, 3 side chain; on linkers, the order of the positions; unused ones are H or OH. Square brackets hold non-standard residues; d marks the D form. Peptide text beside a SMILES is read from it. Adipoyl = O=C(CCCCC(=O)[*:2])[*:1]; d(hPhe) = N[C@H](CCc1ccccc1)C(=O)O; hLeu = CC(C)CC[C@H](N)C(=O)O

Tests used:
[1] = system: souris femelles C57 BL/6JICO; test: Contact hypersensitivity test to dinitrofluorobenzene (DNFB), anti-allergic activity, topical application (Example 6); assay type: in vivo; details: for % Augment. O. Gauche / % Augment. O. Droite: increase of ear thickness; for % Augment. O. Gauche / % Suppress. O. Gauche: left ear; for % Augment. O. Droite / % Suppress. O. Droite: right ear; for % Suppress. O. Gauche / % Suppress. O. Droite: suppression versus control lot
Text: Des souris femelles C57 BL/6JICO, âgées de 5 semaines sont réparties en dix lots de dix animaux (cinq par cage), avec libre accès à l'eau et à la nourriture, soumises à une photopériode de douze heures de lumière par vingt-quatre heures.
Les animaux des lots 1 à 6 reçoivent quotidiennement et par application topique sur la peau rasée du dos, les produits à étudier (conjugués 1 et 5 représentés par les composés P1 et P2 préparés selon les exemples 1 et 2), mis en solution dans du propylène glycol, sous un volume constant de 50 µl et cela pendant cinq jours consécutifs.
• Composé P1 - Lots 1, 2 et 3 - 2,5 µg, 0,5 µg et 0,1 µg /souris/jour respectivement. • Composé P2 - Lots 4, 5 et 6 - 2,5 µg, 0,5 µg et 0.1 µg /souris/jour respectivement.
Les animaux du lot 10 servent de témoins (ils reçoivent seulement, 50 µl de propylène glycol par application topique pendant cinq jours).
Au cinquième jour, trente minutes après la dernière application toutes les souris sont sensibilisées avec 25 µl de D N F B (2,4-dinitro-1-fluorobenzène (FLUKA CHEMIKA PURUM à 97 % lot n° 33820890)) à 2 % dans un mélange 4 pour 1 d'acétone (SDS réf 0510) et de trioléine (FLUKA) appliqué par voie topique sur la région dorsale de peau rasée.
Au sixième jour, on procède à une nouvelle sensibilisation par application de D N F B.
Au onzième jour, l'épaisseur des oreilles des souris, est mesurée à l'aide d'un micromètre (ROCH 0 à 25 mm au 1/100 mm) afin d'obtenir des valeurs de base, puis les oreilles sont stimulées par application topique de 20 µl de DNFB à 0,8 %.
Au douzième jour, l'épaisseur des oreilles est à nouveau mesurée. On établit la valeur moyenne de l'épaississement des oreilles pour les souris des lots qui ont reçu les produits à étudier, ainsi que pour les souris du lot témoin.
Le pourcentage de suppression éventuelle sera exprimé par le calcul suivant : (T-E)/(T)x100 [formula] avec T pour le pourcentage d'augmentation de l'épaisseur moyenne des oreilles du lot témoin et E pour celui des lots qui ont reçu les produits à étudier.

PGE2 = test: Inhibition of PGE2 production by IL1-stimulated MRC5 fibroblasts, RIA (Example 7); assay type: cell-based, humaine
Text: Mise en évidence de l'effet inhibiteur des conjugués 1 et 5 (composés P1 et P2) sur la production par des fibroblastes stimulés par l'IL 1, d'un métabolite de l'acide arachidonique, la PGE2.
Nous avons choisi d'utiliser la souche ATCC MRC5 entretenue au laboratoire de façon continue et déjà testée par Cannon et al. (J. Immunol., 1986). Après un repiquage, les fibroblastes sont cultivés dans des micropuits (plaque de 24 puits de 2 cm^2, Falcon). L'innoculum est de 30 000 cellules par puits; le milieu nutritif utilisé est composé de RPMI 1640 (90 %) et de sérum de veau foetal décomplémenté (SVF, 10 %). Le milieu est changé tous les deux jours jusqu'à confluence des cellules.
Les couches monocellulaires ainsi obtenues sont lavées puis préincubées pendant 24 heures dans du milieu frais ne contenant que 1 % de SVF. […] Après 20 minutes d'incubation en présence de ces composés, l'ILI recombinante humaine (Tebu, France) à la concentration de 5, 2,5 ou 0,5 ng/ml de milieu est mise en contact avec des cellules pendant 18 heures. A la fin de cette incubation les surnageants sont prélevés et congelés à - 80 ° C jusqu'à l'analyse. Les couches monocellulaires sont fixées au méthanol.
Le dosage RIA est effectué selon la méthode décrite par Dray et al. (Europ. J. Invest. 1975). 3 séries d'expériences en duplicate ont été réalisées pour chaque concentration de produit étudié et pour les contrôles. Les résultats sont exprimés en pg/µg d'ADN. L'effet inhibiteur est exprimé en pourcentage par rapport aux contrôles.
Afin d'éviter toute erreur possible due au comptage en microscopie optique, l'ADN a été dosé par méthode fluorimétrique selon le protocole décrit par Brunk et al. (Analytical Biochem., 1979).

souris = test: Comparative DNFB contact hypersensitivity test, conjugate versus its peptide alone (Example 9); assay type: in vivo
Text: La méthode utilisée est celle décrite précédemment dans l'exemple N° 4, hypersensibilité de contact induite chez la souris par la D N F B. • Produits étudiés Lot I : [formula] - Conjugué 1 représenté par le composé P3. Lot II : Me.Nle - Glu - His - D-homo-Phé - Arg - Trp - Gly - NH2 Lot T : Témoin = Acide trans-10-hydroxy-2-décénoïque.
Solvant : le propylène glycol précédemment employé comme témoin dans l'exemple 6.
Une mesure de l'activité du témoin sera effectuée pour chaque expérimentation. - Expérimentation et posologie
Témoin: 10 ng d' acide trans-10-hydroxy-2-décénoïque par souris et par jour.
Au cinquième jour, trente minutes après la dernière application toutes les souris sont sensibilisées avec 25 µl de D N F B (2.4-dinitro-1-fluorobenzène (FLUKA CHEMIKA PURUM à 97 % lot N° 33820890)) à 2 % dans un mélange 4 pour 1 d'acétone (SDS réf. 05510) et de trioléine (FLUKA) appliqué par voie topique sur la région dorsale de peau rasée. Au sixième jour, on procède à une nouvelle sensibilisation par application de D N F B. Au onzième jour, l'épaisseur des oreilles des souris, est mesurée à l'aide d'un micromètre (ROCH 0 à 25 mm au 1/100 mm) afin d'obtenir des valeurs de base, puis les oreilles sont stimulées par application topique de 20 µl de D N F B à 0,8 %. Au douzième jour, l'épaisseur des oreilles est à nouveau mesurée. On établit la valeur moyenne de l'épaississement des oreilles pour les souris des lots qui ont reçu les produits à étudier, ainsi que pour les souris du lot témoin.Le pourcentage de suppression éventuelle sera exprimé par la même équation que dans l'exemple 6.

[2] = 0,1 µg/souris/jour topical for 5 days in propylene glycol
[3] = 0,1 µg/souris/jour topical for 5 days
[4] = 0,5 µg/souris/jour topical for 5 days in propylene glycol
[5] = 0,5 µg/souris/jour topical for 5 days
[6] = 2,5 µg/souris/jour topical for 5 days in propylene glycol
[7] = 2,5 µg/souris/jour topical for 5 days

CC(C)CC[C@H](NC(=O)CCCCC(=O)O)C(=O)N[C@@H](CCC(=O)O)C(=O)N[C@@H](Cc1c[nH]cn1)C(=O)N[C@H](CCc1ccccc1)C(=O)N[C@@H](CCCNC(=N)N)C(=O)N[C@@H](Cc1c[nH]c2ccccc12)C(=O)NCC(N)=O [Conjugué 1, Adipoyl - Me.Nle - Glu - His - D-homo-Phé - Arg - Trp - Gly - NH2] (Adipoyl-[hLeu]EH[d(hPhe)]RWG-NH2)
% Augment. O. Gauche [1, 2]: 21,50%
% Augment. O. Droite [1, 2]: 22,00%
% Suppress. O. Gauche [1, 3]: 62,93%
% Suppress. O. Droite [1, 3]: 62,39%
% Augment. O. Gauche [1, 4]: 19,00%
% Augment. O. Droite [1, 4]: 19,50%
% Suppress. O. Gauche [1, 5]: 67,24%
% Suppress. O. Droite [1, 5]: 66,66%
% Augment. O. Gauche [1, 6]: 17,50%
% Augment. O. Droite [1, 6]: 17,80%
% Suppress. O. Gauche [1, 7]: 69,80%
% Suppress. O. Droite [1, 7]: 69,57%
suppression de la réaction d'hypersensibilité cutanée induite par administration de D N F. B ([1]; matches the 2,5 µg/souris/jour lots of Table 1): ~69%
% inhib. (PGE2; IL1 0,5 ng, conjugate 10^-4 M): 60%
PGE2 (PGE2; IL1 0,5 ng, conjugate 10^-4 M): 113 ± 25 pg/mg d'ADN
% inhib. (PGE2; IL1 0,5 ng, conjugate 10^-5 M): 38%
PGE2 (PGE2; IL1 0,5 ng, conjugate 10^-5 M): 176 ± 37 pg/mg d'ADN
% inhib. (PGE2; IL1 0,5 ng, conjugate 10^-6 M): 19%
PGE2 (PGE2; IL1 0,5 ng, conjugate 10^-6 M): 231 ± 55 pg/mg d'ADN
% inhib. (PGE2; IL1 0,5 ng, conjugate 10^-7 M): 13%
PGE2 (PGE2; IL1 0,5 ng, conjugate 10^-7 M): 249 ± 60 pg/mg d'ADN
% inhib. (PGE2; IL1 0,5 ng, conjugate 10^-8 M): 10%
PGE2 (PGE2; IL1 0,5 ng, conjugate 10^-8 M): 258 ± 35 pg/mg d'ADN
PGE2 (PGE2; IL1 0,5 ng, conjugate 10^-9 M): 364 ± 56 pg/mg d'ADN
% inhib. (PGE2; IL1 2,5 ng, conjugate 10^-4 M): 53%
PGE2 (PGE2; IL1 2,5 ng, conjugate 10^-4 M): 179 ± 50 pg/mg d'ADN
% inhib. (PGE2; IL1 2,5 ng, conjugate 10^-5 M): 40%
PGE2 (PGE2; IL1 2,5 ng, conjugate 10^-5 M): 232 ± 45 pg/mg d'ADN
% inhib. (PGE2; IL1 2,5 ng, conjugate 10^-6 M): 24%
PGE2 (PGE2; IL1 2,5 ng, conjugate 10^-6 M): 292 ± 68 pg/mg d'ADN
% inhib. (PGE2; IL1 2,5 ng, conjugate 10^-7 M): 6%
PGE2 (PGE2; IL1 2,5 ng, conjugate 10^-7 M): 364 ± 68 pg/mg d'ADN
% inhib. (PGE2; IL1 2,5 ng, conjugate 10^-8 M): 13%
PGE2 (PGE2; IL1 2,5 ng, conjugate 10^-8 M): 335 ± 50 pg/mg d'ADN
% inhib. (PGE2; IL1 2,5 ng, conjugate 10^-9 M): 17%
PGE2 (PGE2; IL1 2,5 ng, conjugate 10^-9 M): 320 ± 43 pg/mg d'ADN
action inhibitrice (PGE2; Table 2, dose-effect relation, independent of IL1 concentration): bonne action inhibitrice
action à partir de 10^-7 M (PGE2; conjugate 10^-7 M and lower, at both IL1 concentrations (2,5 and 0,5 ng)): pas d'action
pouvoir inhibiteur de l'action de l'IL1 et de la PGE2 (PGE2; summary of Tables 2 and 3): possèdent un pouvoir inhibiteur

CC(C)CC[C@H](N)C(=O)N[C@@H](CCC(=O)O)C(=O)N[C@@H](Cc1c[nH]cn1)C(=O)N[C@H](CCc1ccccc1)C(=O)N[C@@H](CCCNC(=N)N)C(=O)N[C@@H](Cc1c[nH]c2ccccc12)C(=O)NCC(N)=O [Lot II, Me.Nle - Glu - His - D-homo-Phé - Arg - Trp - Gly - NH2] (H-[hLeu]EH[d(hPhe)]RWG-NH2)
suppression de l'hypersensibilité cutanée (souris; 0,1 µg/souris/jour): 47%
suppression de l'hypersensibilité cutanée (souris; 0,5 µg/souris/jour): ~60%
suppression de l'hypersensibilité cutanée (souris; 2,5 µg/souris/jour): ~69%

O=C(O)/C=C/CCCCCCCO [Lot T, Acide trans-10-hydroxy-2-décénoïque]
% Augment. O. Gauche (souris; 0,01 µg/souris/jour (10 ng) topical in propylene glycol, control substance, one measurement per experiment, left ear): 55,80% and 57,10%
% Augment. O. Droite (souris; 0,01 µg/souris/jour (10 ng) topical in propylene glycol, control substance, one measurement per experiment, right ear): 56,00% and 57,50%
effet suppressif de l'hypersensibilité cutanée (souris; in solution in propylene glycol, 10 ng per mouse per day): pas d'effet suppressif
